Experimental data published in patent US5710244A, “Derivatized calcitonins” (priority 1993, dated 1998).

Tests used:
[1] = biological target: T1, recombinant human calcitonin receptor (Homo sapiens, UniProt P30988); experiment: CRE-linked luciferase (cyclic AMP) induction in BHK/KZ10-20-48 cells expressing recombinant human calcitonin receptor; type: cell-based; conditions: for % SCT EC50, Human CT receptor: EC50 as % of salmon calcitonin (SCT) EC50, CRE-luciferase, BHK/KZ10-20-48 cells, 4 h induction; for activity / potency compared with human calcitonin: text summary of the Table (hamster and human CT receptor)
T1 construct: expressed in transfected cells; host or cells: BHK/KZ10-20-48 (BHK cells carrying a CRE-luciferase reporter) transfected with pHOLLEX (ATCC 69067)
T1 sequence (P30988 25-474): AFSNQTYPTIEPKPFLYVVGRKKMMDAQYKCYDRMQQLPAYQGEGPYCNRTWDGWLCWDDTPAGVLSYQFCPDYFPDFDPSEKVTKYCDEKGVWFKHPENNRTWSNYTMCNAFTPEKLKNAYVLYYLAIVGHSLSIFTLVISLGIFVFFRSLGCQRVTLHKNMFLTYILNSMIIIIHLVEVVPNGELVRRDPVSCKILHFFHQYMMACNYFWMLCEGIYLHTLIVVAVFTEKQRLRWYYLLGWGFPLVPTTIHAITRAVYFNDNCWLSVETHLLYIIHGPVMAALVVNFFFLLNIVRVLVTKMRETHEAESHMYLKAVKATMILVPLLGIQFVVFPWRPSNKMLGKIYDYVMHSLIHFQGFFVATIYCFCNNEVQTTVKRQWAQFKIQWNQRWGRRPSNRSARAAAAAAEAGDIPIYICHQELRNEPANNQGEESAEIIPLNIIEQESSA
Experimental: BHK/KZ10-20-48 is a BHK cell line transfected with a plasmid containing a luciferase gene whose expression is dependent upon a cyclic AMP response element (CRE), which induces expression of downstream coding sequences in the presence of cyclic AMP. […] The vector without the calcitonin receptor was used to transfect the cell line BHK/KZ10-20-48 for a negative control. The transfectants were grown in a selective growth medium (Dulbecco's Modified Eagle Medium (DMEM) with 5% serum) containing both 500 μg/ml G418-neomycin and 250 nM methotrexate.
Cells expressing the calcitonin receptor were assayed in triplicate for the induction of the CRE-linked luciferase response to salmon calcitonin (SCT) and derivatized calcitonins at concentrations ranging from 10^-13 M to 10^-6 M. MICROLITE flat bottom tissue culture plates (Baxter Scientific Products, Chicago, Ill.) were set up such that each well contained 2×10^4 cells in 100 μl of selection media, and the cells were grown overnight. […] Induction was initiated by removing old medium from the wells and adding 100 μl of fresh growth medium and 100 μl of either 2X solution in triplicate sample wells. Uninduced luciferase levels were determined in triplicate wells to which 100 μl of DMEM containing 10% fetal calf serum was added. The plates were incubated for four hours at 37° C., 5% CO2 to allow induction of luciferase. Following induction, the media were removed, and the wells were washed once with 200 μl/well PBS. After the wash, 20 μl of a 1:5 dilution (in sterile water) of the stock Cell Culture Lysis Reagent (Luciferase Assay System, Promega Corp., Madison, Wis.) was added to each well, and the plates were incubated for 15 minutes at room temperature. The plates were transferred to a Labsystems Luminoskan microtiter luminometer (Labsystems Inc., Morton Grove, Ill.) which added 40 μl of Luciferase Assay Substrate (Luciferase Assay System, Promega), mixed the reaction for three seconds and integrated the luciferase signal for two seconds per well. The fold induction of luciferase for each compound was calculated as follows:

[2] = test system: endogenous hamster calcitonin receptor; experiment: CRE-linked luciferase (cyclic AMP) induction in BHK cells expressing endogenous hamster calcitonin receptor; type: cell-based; conditions: EC50 as % of salmon calcitonin (SCT) EC50; CRE-luciferase, BHK cells, 4 h induction
Experimental: A BHK cell line expressing the endogenous hamster calcitonin receptor was transfected with plasmid KZ10-20-48 to provide the CRE-inducible luciferase receptor described above. The transfected cells were cultured in selective growth medium containing both 500 μg/mL G418-neomycin and 250 nM methotrexate.
Cells expressing the calcitonin receptor were assayed in triplicate for the induction of the CRE-linked luciferase response to salmon calcitonin (SCT) and derivatized calcitonins at concentrations ranging from 10^-13 M to 10^-6 M. MICROLITE flat bottom tissue culture plates (Baxter Scientific Products, Chicago, Ill.) were set up such that each well contained 2×10^4 cells in 100 μl of selection media, and the cells were grown overnight. SCT and GF43 were prepared at 2X the final assay concentration to give 10^-13 to 10^-6 M in growth medium. Induction was initiated by removing old medium from the wells and adding 100 μl of fresh growth medium and 100 μl of either 2X solution in triplicate sample wells. Uninduced luciferase levels were determined in triplicate wells to which 100 μl of DMEM containing 10% fetal calf serum was added. The plates were incubated for four hours at 37° C., 5% CO2 to allow induction of luciferase. Following induction, the media were removed, and the wells were washed once with 200 μl/well PBS. After the wash, 20 μl of a 1:5 dilution (in sterile water) of the stock Cell Culture Lysis Reagent (Luciferase Assay System, Promega Corp., Madison, Wis.) was added to each well, and the plates were incubated for 15 minutes at room temperature. The plates were transferred to a Labsystems Luminoskan microtiter luminometer (Labsystems Inc., Morton Grove, Ill.) which added 40 μl of Luciferase Assay Substrate (Luciferase Assay System, Promega), mixed the reaction for three seconds and integrated the luciferase signal for two seconds per well. The fold induction of luciferase for each compound was calculated as follows:
Fold induction=Induced signal-Uninduced signal Uninduced signal

[3] = test system: serum calcium in mice; experiment: In vivo effect on serum calcium levels in mice; conditions: Swiss-Webster male mice, single subcutaneous injection, 100 ng/ml, 1 μg/ml, 10 μg/ml; 0, 1 and 4 hours; FIGS. 1 and 2
Experimental: The biological activity of bipyridine-calcitonin in vivo was measured as the ability of BP4,4 -CT to lower serum calcium in mice as compared to the action of salmon calcitonin. Six-week old Swiss-Webster male mice (12 to 18 grams) were given single, subcutaneous injections of BP4,4 -CT, salmon calcitonin or vehicle. Blood samples for serum calcium measurements were collected from orbital sinus punctures at timed intervals of 0, 1 and 4 hours after injection. Serum calcium was analyzed using a Dacos Excel Analyzer (Coulter Electronics Company, Hialeah, Fla.). The compounds were given at the following doses with eight mice randomly assigned to each of the following groups: […]

CC(C)C[C@H](NC(=O)[C@H](CCCCN)NC(=O)CNC(=O)[C@H](CC(C)C)NC(=O)[C@@H](NC(=O)[C@@H]1CSSC[C@H](NC(=O)c2cccnc2)C(=O)N[C@@H](CO)C(=O)N[C@@H](CC(N)=O)C(=O)N[C@@H](CC(C)C)C(=O)N[C@@H](CO)C(=O)N[C@@H]([C@@H](C)O)C(=O)N1)C(C)C)C(=O)N[C@@H](CO)C(=O)N[C@@H](CCC(N)=O)C(=O)N[C@@H](CCC(=O)O)C(=O)N[C@@H](CC(C)C)C(=O)N[C@@H](Cc1c[nH]cn1)C(=O)N[C@@H](CCCCN)C(=O)N[C@@H](CC(C)C)C(=O)N[C@@H](CCC(N)=O)C(=O)N[C@H](C(=O)N[C@@H](Cc1ccc(O)cc1)C(=O)N1CCC[C@H]1C(=O)N[C@@H](CCCNC(=N)N)C(=O)N[C@H](C(=O)N[C@@H](CC(N)=O)C(=O)N[C@H](C(=O)NCC(=O)N[C@@H](CO)C(=O)NCC(=O)N[C@H](C(=O)N1CCC[C@H]1C(N)=O)[C@@H](C)O)[C@@H](C)O)[C@@H](C)O)[C@@H](C)O [ZP-5] was tested, and the “% SCT EC50, Human CT receptor” value [1] was 112%.
For “ZP-9: DL-pipecolinic acid modified salmon calcitonin”, the “% SCT EC50, Hamster CT receptor” value [2] was 147% and the “activity / potency compared with human calcitonin” value [1] was “greater activity than human calcitonin”.
In the case of CC(C)C[C@H](NC(=O)[C@H](CCCCN)NC(=O)CNC(=O)[C@H](CC(C)C)NC(=O)[C@@H](NC(=O)[C@@H]1CSSC[C@H](NC(=O)c2ccccn2)C(=O)N[C@@H](CO)C(=O)N[C@@H](CC(N)=O)C(=O)N[C@@H](CC(C)C)C(=O)N[C@@H](CO)C(=O)N[C@@H]([C@@H](C)O)C(=O)N1)C(C)C)C(=O)N[C@@H](CO)C(=O)N[C@@H](CCC(N)=O)C(=O)N[C@@H](CCC(=O)O)C(=O)N[C@@H](CC(C)C)C(=O)N[C@@H](Cc1c[nH]cn1)C(=O)N[C@@H](CCCCN)C(=O)N[C@@H](CC(C)C)C(=O)N[C@@H](CCC(N)=O)C(=O)N[C@H](C(=O)N[C@@H](Cc1ccc(O)cc1)C(=O)N1CCC[C@H]1C(=O)N[C@@H](CCCNC(=N)N)C(=O)N[C@H](C(=O)N[C@@H](CC(N)=O)C(=O)N[C@H](C(=O)NCC(=O)N[C@@H](CO)C(=O)NCC(=O)N[C@H](C(=O)N1CCC[C@H]1C(N)=O)[C@@H](C)O)[C@@H](C)O)[C@@H](C)O)[C@@H](C)O [ZP-6], the “% SCT EC50, Human CT receptor” value [1] is reported as 140%.
“ZP-1: salmon calcitonin N-terminally modified with 2,2'-bipyridine-4,4'-dicarboxylic acid” was tested, and the “% SCT EC50, Hamster CT receptor” value [2] was 73% and the “decrease of serum calcium levels” value [3] was “equally decreased serum calcium levels in a dose-dependent manner”.
With CC(C)C[C@H](NC(=O)[C@H](CCCCN)NC(=O)CNC(=O)[C@H](CC(C)C)NC(=O)[C@@H](NC(=O)[C@@H]1CSSC[C@H](N)C(=O)N[C@@H](CO)C(=O)N[C@@H](CC(N)=O)C(=O)N[C@@H](CC(C)C)C(=O)N[C@@H](CO)C(=O)N[C@@H]([C@@H](C)O)C(=O)N1)C(C)C)C(=O)N[C@@H](CO)C(=O)N[C@@H](CCC(N)=O)C(=O)N[C@@H](CCC(=O)O)C(=O)N[C@@H](CC(C)C)C(=O)N[C@@H](Cc1c[nH]cn1)C(=O)N[C@@H](CCCCN)C(=O)N[C@@H](CC(C)C)C(=O)N[C@@H](CCC(N)=O)C(=O)N[C@H](C(=O)N[C@@H](Cc1ccc(O)cc1)C(=O)N1CCC[C@H]1C(=O)N[C@@H](CCCNC(=N)N)C(=O)N[C@H](C(=O)N[C@@H](CC(N)=O)C(=O)N[C@H](C(=O)NCC(=O)N[C@@H](CO)C(=O)NCC(=O)N[C@H](C(=O)N1CCC[C@H]1C(N)=O)[C@@H](C)O)[C@@H](C)O)[C@@H](C)O)[C@@H](C)O [salmon calcitonin, reference compound] the “decrease of serum calcium levels” value [3] was “equally decreased serum calcium levels in a dose-dependent manner”.
“ZP-8: isonipecotic acid modified salmon calcitonin” was tested, and the “% SCT EC50, Hamster CT receptor” value [2] was 106% and the “activity / potency compared with human calcitonin” value [1] was “greater activity than human calcitonin”.
